# Key:
# ADK = ADK (Homo sapiens, UniProt P55263); conditions: cited from earlier work; for IC50: used as treatment dose, read-out: IC50 of ADK inhibitor
# ADK-L cells = experiment: 5-methylcytosine (5-mC) ELISA of genomic DNA from treated ADK-L cells; type: cell-based; conditions: compound at its IC50, genomic DNA isolated 24 hours after treatment, 100 ng DNA, n=8-9
# Procedure: The IC50 for each ADK inhibitor was selected as the treatment dose. Total genomic DNA was isolated 24 hours after treatment and 100 ng of purified DNA was run on a 5-methylcytosine (5-mC) ELISA (Zymo Research Corp.) to quantify 5-methylcytosine. […] Data are represented as the mean±SEM (n=8-9). Statistical analysis is a One-way ANOVA (F(4,37)=2.95, p=0.033) followed by uncorrected Fisher's LSD post hoc test.
# The IC50 of CBZ was selected as the treatment dose. Total genomic DNA was isolated 24 hours after treatment, and 100 ng of purified DNA was run on a 5-methylcytosine (5-mC) ELISA (Zymo Research Corp) to determine the amount of 5-methylcytosine. […] Data are represented as the mean±SEM (n=8-9). Statistical analysis is a One-way ANOVA for Panel A (F(2,23)=5.67, p=0.0099) followed by uncorrected Fisher's LSD post hoc test and Kruskal-Wallis test for Panel B (Kruskal-Wallis statistic=1.11, p=0.57).
# ADK-S cells = experiment: 5-methylcytosine (5-mC) ELISA of genomic DNA from treated ADK-S cells; type: cell-based; conditions: for DNA methylation levels in ADK-S cells compared to vehicle-treated ADK-S cells: compound at its IC50, 24 hours after treatment, n=4-9
# Procedure: 100 ng of purified genomic DNA was run on a 5-methylcytosine (5-mC) ELISA (Zymo Research Corp.) to quantify 5-methylcytosine.
# FIG. 8 is a pair of bar graphs plotting the amount of 5-methylcytosine detected in genomic DNA isolated from the ADK-null cell line (Panel A) and the ADK-S cell line (Panel B) of FIG. 3, in the absence or presence of various ADK inhibitors, with each amount normalized with respect to the amount detected for vehicle-treated ADK-null cells. ADK-null and ADK-S cells identify off target effects of ADK inhibitors on DNA methylation levels. […] The IC50 for each ADK inhibitor was selected as the treatment dose. Total genomic DNA was isolated 24 hours after treatment, and 100 ng of purified DNA was run on a 5-methylcytosine (5-mC) ELISA (Zymo Research Corp) to determine the amount of 5-methylcytosine. […] Data are represented as the mean±SEM (n=4-9). Statistical analysis is a One-way ANOVA followed by uncorrected Fisher's LSD post hoc test.
# FIG. 9 is a pair of bar graphs plotting the amount of 5-methylcytosine detected in genomic DNA isolated from the ADK-L cell line (Panel A) and the ADK-S cell line (Panel B) of FIG. 3, in the absence or presence of carbamazepine, with vehicle-treated ADK-null cells as a control. […] The IC50 of CBZ was selected as the treatment dose. Total genomic DNA was isolated 24 hours after treatment, and 100 ng of purified DNA was run on a 5-methylcytosine (5-mC) ELISA (Zymo Research Corp) to determine the amount of 5-methylcytosine. […] Data are represented as the mean±SEM (n=8-9). Statistical analysis is a One-way ANOVA for Panel A (F(2,23)=5.67, p=0.0099) followed by uncorrected Fisher's LSD post hoc test and Kruskal-Wallis test for Panel B (Kruskal-Wallis statistic=1.11, p=0.57).
# Chain of ADK (P55263 whole entry, species assumed): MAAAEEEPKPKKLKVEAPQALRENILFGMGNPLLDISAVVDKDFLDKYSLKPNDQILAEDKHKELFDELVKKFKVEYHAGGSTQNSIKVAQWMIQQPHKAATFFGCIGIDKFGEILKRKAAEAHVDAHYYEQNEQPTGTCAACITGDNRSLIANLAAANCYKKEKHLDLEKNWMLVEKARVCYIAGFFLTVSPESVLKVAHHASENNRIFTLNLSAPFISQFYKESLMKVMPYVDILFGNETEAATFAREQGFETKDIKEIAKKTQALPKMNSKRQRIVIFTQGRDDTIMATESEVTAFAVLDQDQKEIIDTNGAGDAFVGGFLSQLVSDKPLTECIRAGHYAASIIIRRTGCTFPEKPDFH
SMILES,IC50 (ADK),DNA methylation (5-methylcytosine) in ADK-L cells versus vehicle alone (ADK-L cells),Interaction with ADK (ADK),"DNA methylation levels in CBZ-treated ADK-S cells compared to ADK-null cells (ADK-S cells; CBZ 24.5 nM, 24 hours after treatment, n=8-9, Kruskal-Wallis p=0.57)",DNA methylation levels in ADK-S cells compared to vehicle-treated ADK-S cells (ADK-S cells)
Nc1ncnc2nc(-c3ccc(N4CCOCC4)nc3)cc(-c3cccc(Br)c3)c12 [ABT-702],1700 pM,Neither ABT-702 nor A-134974 alters DNA methylation,–,–,–
"NC(=O)N1c2ccccc2C=Cc2ccccc21 [CBZ, Carbamazepine]",–,does not decrease DNA methylation,does not interact with ADK,not significantly different,–
Nc1ncnc2c1c(I)cn2[C@@H]1C[C@H](N)[C@@H](O)[C@H]1O [A-134974],60 pM,Neither ABT-702 nor A-134974 alters DNA methylation,–,–,significantly increased
"Nc1ncnc2c1c(I)cn2[C@@H]1O[C@H](CO)[C@@H](O)[C@H]1O [5-ITU, 5-iodotubercidin]",–,significantly decreases DNA methylation,–,–,significantly increased
